Experimental data reported in patent US9714266B2, “Estra-1,3,5(10),16-tetraene-3-carboxamides for inhibition of 17β-hydroxysteroid dehydrogenase (AKR1C3)” (priority 2013, dated 2017).
Where “and” joins values, the source holds several entries; their conditions need not be identical. Equal values may be shown once.

Biological target: AKR1C3 (Homo sapiens (Human), UniProt P42330)
Assay: AKR1C3 enzyme assay (coumberone reduction, fluorescence)
Format: biochemical
Details: recombinant human AKR1C3, coumberone 0.3 μM, NADPH 10 μM; read-out: AKR1C3 enzyme inhibition IC50
Description: The AKR1C3-inhibitory action of the substances of this invention was measured in the AKR1C3 assay described in the paragraphs which follow. Essentially, the enzyme activity is measured by quantifying the coumberol formed from coumberone ([…]., and […]. AM. CHEM. SOC. 130, 14123-14128 (2008) […]., Bauman, D. R., Penning, T. M., and […]., Proc. Natl. Acad. Sci. USA 103, 13304-13309 (2006)). In this assay, the increase in the highly fluorescent coumberol can be determined by NADPH (nicotinamide adenine dinucleotide phosphate)-dependent reduction of the nonfluorescent coumberone by AKR1C3. […] NM_003739). This was expressed as the GST (glutathione S-transferase) fusion protein in E. coli and purified by means of glutathione-Sepharose affinity chromatography. The GST was removed by thrombin digestion with subsequent size exclusion chromatography (Dufort, I., Rheault, P., Huang, X F., Soucy, P., and Luu-The, V., Endocrinology 140, 568-574 (1999)). […] The concentration of the AKR1C3 was matched to the respective activity of the enzyme preparation and set such that the assay worked within the linear range. Typical concentrations were in the region of 1 nM. The reaction was stopped by adding 5 μl of a stop solution consisting of the inhibitor EM-1404 [F. Labrie et al. U.S. Pat. […] Subsequently, the fluorescence of coumberol was measured at 520 nm (excitation at 380 nm) with a suitable measuring instrument (Pherastar from BMG Labtechnologies).

Sequence of AKR1C3 (P42330 whole entry): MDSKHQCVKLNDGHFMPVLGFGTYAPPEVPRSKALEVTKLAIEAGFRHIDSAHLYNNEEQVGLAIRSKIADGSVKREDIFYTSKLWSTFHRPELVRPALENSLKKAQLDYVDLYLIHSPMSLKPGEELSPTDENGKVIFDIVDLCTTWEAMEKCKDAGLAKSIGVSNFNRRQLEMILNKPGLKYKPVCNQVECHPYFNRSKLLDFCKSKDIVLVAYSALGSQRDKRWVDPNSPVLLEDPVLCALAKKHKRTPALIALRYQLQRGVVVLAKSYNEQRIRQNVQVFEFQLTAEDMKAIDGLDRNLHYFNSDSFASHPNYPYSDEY

CN(CCO)C(=O)c1ccc2c(c1)CC[C@@H]1[C@@H]2CC[C@]2(C)C(c3cncc(F)c3)=CC[C@@H]12 [Example 44, 17-(5-fluoropyridin-3-yl)-N-(2-hydroxyethyl)-N-methyloestra-1,3,5(10),16-tetraene-3-carboxamide]
IC50: 12 nM

C[C@]12C[C@H](F)[C@@H]3c4ccc(C(=O)NCCS(N)(=O)=O)cc4CC[C@H]3[C@@H]1CC=C2c1cncc(F)c1 [Example 8, 11β-fluoro-17-(5-fluoropyridin-3-yl)-N-(2-sulphamoylethyl)oestra-1,3,5(10),16-tetraene-3-carboxamide]
IC50: 73 nM

C[C@]12CC[C@@H]3c4ccc(C(=O)N[C@H]5CCC[C@@H]5O)cc4CC[C@H]3[C@@H]1CC=C2c1cncc(F)c1 [Example 11, 17-(5-fluoropyridin-3-yl)-N-[(1S,2S)-2-hydroxycyclopentyl]oestra-1,3,5(10),16-tetraene-3-carboxamide]
IC50: 34 nM and 20 nM

C[C@]12CC[C@@H]3c4ccc(C(=O)NCCC(N)=O)cc4CC[C@H]3[C@@H]1CC=C2c1cncc(F)c1 [Example 26, N-(3-amino-3-oxopropyl)-17-(5-fluoropyridin-3-yl)oestra-1,3,5(10),16-tetraene-3-carboxamide]
IC50: 5 nM

C[C@]12CC[C@@H]3c4ccc(C(=O)NC5(CO)CCCC5)cc4CC[C@H]3[C@@H]1CC=C2c1cncc(F)c1 [Example 13, 17-(5-fluoropyridin-3-yl)-N-[1-(hydroxymethyl)cyclopentyl]oestra-1,3,5(10),16-tetraene-3-carboxamide]
IC50: 108 nM and 79 nM

CNC(=O)CCNC(=O)c1ccc2c(c1)CC[C@@H]1[C@@H]2CC[C@]2(C)C(c3cncc(F)c3)=CC[C@@H]12 [Example 27, 17-(5-fluoropyridin-3-yl)-N-[3-(methylamino)-3-oxopropyl]oestra-1,3,5(10),16-tetraene-3-carboxamide]
IC50: 5 nM

CC[C@@H](CO)NC(=O)c1ccc2c(c1)CC[C@@H]1[C@@H]2CC[C@]2(C)C(c3cncc(F)c3)=CC[C@@H]12 [Example 15, 17-(5-fluoropyridin-3-yl)-N—[(S)-1-(hydroxymethyl)propyl]oestra-1,3,5(10),16-tetraene-3-carboxamide]
IC50: 25 nM

C[C@]12CC[C@@H]3c4ccc(C(=O)NCCS(N)(=O)=O)cc4CC[C@H]3[C@@H]1CC=C2c1cccnc1 [Example 23, 17-(3-pyridyl)-N-(2-sulphamoylethyl)oestra-1,3,5(10),16-tetraene-3-carboxamide]
IC50: 9 nM

C[C@]12CC[C@@H]3c4ccc(C(N)=O)cc4CC[C@H]3[C@@H]1CC=C2c1cncc(C#N)c1 [Example 6, 17-(5-cyanopyridin-3-yl)oestra-1,3,5(10),16-tetraene-3-carboxamide]
IC50: 346 nM

C[C@]12CC[C@@H]3c4ccc(C(=O)N[C@H]5CCC[C@H]5O)cc4CC[C@H]3[C@@H]1CC=C2c1cncc(F)c1 [Example 9, 17-(5-fluoropyridin-3-yl)-N-[(1S,2R)-2-hydroxycyclopentyl]oestra-1,3,5(10),16-tetraene-3-carboxamide]
IC50: 61 nM and 81 nM

C[C@]12CC[C@@H]3c4ccc(C(=O)NC[C@@H](O)CO)cc4CC[C@H]3[C@@H]1CC=C2c1cncc(F)c1 [Example 36, N—[(R)-2,3-dihydroxypropyl]-17-(5-fluoropyridin-3-yl)oestra-1,3,5(10),16-tetraene-3-carboxamide]
IC50: 6 nM

CC(O)C(C)NC(=O)c1ccc2c(c1)CCC1C2CCC2(C)C(c3cncc(F)c3)=CCC12 [Example 18, rel-17-(5-fluoropyridin-3-yl)-N-[(1R,2R)-2-hydroxy-1-methylpropyl]oestra-1,3,5(10),16-tetraene-3-carboxamide]
IC50: 45 nM and 35 nM

CN(CCCO)C(=O)c1ccc2c(c1)CC[C@@H]1[C@@H]2CC[C@]2(C)C(c3cncc(F)c3)=CC[C@@H]12 [Example 34, 17-(5-fluoropyridin-3-yl)-N-(3-hydroxypropyl)-N-methyloestra-1,3,5(10),16-tetraene-3-carboxamide]
IC50: 6 nM

C[C@H](O)CNC(=O)c1ccc2c(c1)CC[C@@H]1[C@@H]2CC[C@]2(C)C(c3cncc(F)c3)=CC[C@@H]12 [Example 45, 17-(5-fluoropyridin-3-yl)-N—[(S)-2-hydroxypropyl]oestra-1,3,5(10),16-tetraene-3-carboxamide]
IC50: 6 nM

COc1cncc(C2=CC[C@H]3[C@@H]4CCc5cc(C(N)=O)ccc5[C@H]4CC[C@]23C)c1 [Example 2, 17-(5-methoxypyridin-3-yl)oestra-1,3,5(10),16-tetraene-3-carboxamide]
IC50: 189 nM and 100 nM

C[C@]12CC[C@@H]3c4ccc(C(=O)NCCS(N)(=O)=O)cc4CC[C@H]3[C@@H]1CC=C2c1cncc(C(F)(F)F)c1 [Example 24, N-(2-sulphamoylethyl)-17-[5-(trifluoromethyl)pyridin-3-yl]oestra-1,3,5(10),16-tetraene-3-carboxamide]
IC50: 17 nM

COCCNC(=O)c1ccc2c(c1)CC[C@@H]1[C@@H]2CC[C@]2(C)C(c3cncc(F)c3)=CC[C@@H]12 [Example 41, 17-(5-fluoropyridin-3-yl)-N-(2-methoxyethyl)oestra-1,3,5(10),16-tetraene-3-carboxamide]
IC50: 8 nM

CC(C)(CO)CNC(=O)c1ccc2c(c1)CC[C@@H]1[C@@H]2CC[C@]2(C)C(c3cncc(F)c3)=CC[C@@H]12 [Example 10, 17-(5-fluoropyridin-3-yl)-N-[2-(hydroxymethyl)-2-methylpropyl]oestra-1,3,5(10),16-tetraene-3-carboxamide]
IC50: 97 nM and 46 nM

C[C@]12CC[C@@H]3c4ccc(C(N)=O)cc4CC[C@H]3[C@@H]1CC=C2c1cncnc1 [Example 5, 17-(pyrimidin-5-yl)oestra-1,3,5(10),16-tetraene-3-carboxamide]
IC50: 313 nM and 199 nM and 143 nM

C[S+]([O-])CCNC(=O)c1ccc2c(c1)CC[C@@H]1[C@@H]2CC[C@]2(C)C(c3cncc(F)c3)=CC[C@@H]12 (some centres unmarked) [Example 37, 17-(5-fluoropyridin-3-yl)-N-[2-(methylsulphinyl)ethyl]oestra-1,3,5(10),16-tetraene-3-carboxamide]
IC50: 5 nM

CC(C)N(CCO)C(=O)c1ccc2c(c1)CC[C@@H]1[C@@H]2CC[C@]2(C)C(c3cncc(F)c3)=CC[C@@H]12 [Example 19, 17-(5-fluoropyridin-3-yl)-N-(2-hydroxyethyl)-N-isopropyloestra-1,3,5(10),16-tetraene-3-carboxamide]
IC50: 60 nM and 48 nM

C[C@]12CC[C@@H]3c4ccc(C(=O)NCCS(N)(=O)=O)cc4CC[C@H]3[C@@H]1CC=C2c1cncnc1 [Example 47, 17-(pyrimidin-5-yl)-N-(2-sulphamoylethyl)oestra-1,3,5(10),16-tetraene-3-carboxamide]
IC50: 119 nM

CC(C)S(=O)(=O)CCNC(=O)c1ccc2c(c1)CC[C@@H]1[C@@H]2CC[C@]2(C)C(c3cncc(F)c3)=CC[C@@H]12 [Example 42, 17-(5-fluoropyridin-3-yl)-N-[2-(isopropylsulphonyl)ethyl]oestra-1,3,5(10),16-tetraene-3-carboxamide]
IC50: 11 nM
